The source of these data is US20230167149A1, “CD33 LIGANDS SUITABLE FOR INCORPORATION INTO CARRIERS” (GLYCOMIMETICS, INC., priority 2020, published 2023).

pIC50: −log10 of the molar value.

The test concerns the target T1, CD33 (Homo sapiens, UniProt P20138).
T1 construct: purchased BioLegend 750106
Nature of the test: CD33 competitive binding assay. To be noted: immobilized CD33-Fc; competition with Neu5Acα2-3Galβ1-3GalNAc-PAA-biotin; TMB readout at 450 nm. The protocol:
The assay to screen for and characterize glycomimetic ligands of CD33 is a competitive binding assay, which allows the determination of IC50 values. CD33-Fc (BioLegend catalog item 750106) was immobilized in 96 well microtiter plates by incubation at 4° C. overnight. To reduce non-specific binding, bovine serum albumin was added to each well and incubated at room temperature for 2 hours. The plate was washed and serial dilutions of the test compounds were added to the wells in the presence of biotinylated polyacrylamide conjugated with Neu5Acα2-3Galβ1-3GalNAc-PAA-biotin (GlycoTech catalog item 01-088). After incubation at room temperature for 2 hours and washing, streptavidin/horseradish peroxidase was added to each well and incubated at room temperature for 30 minutes followed by an additional wash.
To determine the amount of glycopolymer bound to the immobilized CD33, the peroxidase substrate 3.3′.5.5′ tetramethylbenzidine (TMB) was added. After 5 minutes, the enzyme reaction was stopped by the addition of H3PO4 and the absorbance of light at a wavelength of 450 nm was determined. The concentration of test compound required to inhibit binding by 50% was determined and reported as the IC50 value.

T1 sequence (P20138 18-364): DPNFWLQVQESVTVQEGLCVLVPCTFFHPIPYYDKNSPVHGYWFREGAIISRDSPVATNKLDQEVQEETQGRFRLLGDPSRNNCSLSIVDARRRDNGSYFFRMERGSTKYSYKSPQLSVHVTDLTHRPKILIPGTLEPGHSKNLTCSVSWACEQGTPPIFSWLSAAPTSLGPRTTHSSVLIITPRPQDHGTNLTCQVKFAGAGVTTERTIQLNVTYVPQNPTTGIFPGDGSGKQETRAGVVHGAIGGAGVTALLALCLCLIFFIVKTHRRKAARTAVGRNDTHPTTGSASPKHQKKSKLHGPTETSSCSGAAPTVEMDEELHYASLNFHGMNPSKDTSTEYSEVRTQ

Usually pIC50 stands for −log10 of the IC50, conventionally taken in molar units. For `CCCNC(=O)COC1C[C@](OCCCn2cc(-c3ccccc3)nn2)(C(=O)O)OC([C@H](O)[C@H](O)CNC(=O)c2cc(C)c(O)c(C)c2)[C@@H]1NC(=O)Cn1cc(C2CCCCC2)nn1` (stereo partly shown) [Compound 193], the pIC50 was 4.40.
